In PubChem BioAssay (NCI):
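Cultured in 96-well plates, cells were exposed to test compound for 48 hours across five concentrations. GI50 is the concentration that inhibits growth by half. The concentration for full growth arrest is given as TGI.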

Columns and labels:
Test in all cases: growth of human tumour cells (NCI), 48 h
DU-145 prostate = system: DU-145 prostate
SF-539 CNS = system: SF-539 CNS
RPMI-8226 leukemia = system: RPMI-8226 leukemia
SNB-75 CNS = system: SNB-75 CNS
TK-10 renal = system: TK-10 renal
MDA-N = system: MDA-N
SK-MEL-28 melanoma = system: SK-MEL-28 melanoma
OVCAR-8 ovarian = system: OVCAR-8 ovarian
MCF7 breast = system: MCF7 breast
A549 NSCLC = system: A549 NSCLC

| Compound | TGI (DU-145 prostate) [µM] | TGI (SF-539 CNS) [µM] | TGI (RPMI-8226 leukemia) [µM] | GI50 (SNB-75 CNS) [µM] | TGI (SNB-75 CNS) [µM] | TGI (TK-10 renal) [µM] | TGI (MDA-N) [µM] | GI50 (SK-MEL-28 melanoma) [µM] | TGI (SK-MEL-28 melanoma) [µM] | GI50 (OVCAR-8 ovarian) [µM] | TGI (OVCAR-8 ovarian) [µM] | GI50 (MCF7 breast) [µM] | TGI (MCF7 breast) [µM] | GI50 (A549 NSCLC) [µM] | TGI (A549 NSCLC) [µM] |
| --- | --- | --- | --- | --- | --- | --- | --- | --- | --- | --- | --- | --- | --- | --- | --- |
| CCCCCCCCCCC1OC([C@@H](O)CC[C@H](O)C2CC[C@@H](CCCCCCCC(O)CC3=CC(C)OC3=O)O2)CCC1O (stereo partly drawn) | > 25 | > 25 | 15.4 | 20.7 | > 25 | > 25 | > 25 | 5.34 | > 25 | 9.96 | > 25 | 1.34 | > 25 | 2.49 | > 25 |
| CN(C)CCCn1nc(N)c2nc3cc(Cl)ccc3nc21 | > 100 | > 100 | > 100 |  | > 100 | > 100 | > 100 |  | 35.7 |  | > 100 |  | > 100 |  | > 100 |
| CCOC(=O)c1sc2[n+](c1C)C(=O)/C(=C/c1ccc([N+](=O)[O-])cc1)S2 | 92.3 | 54.7 | 67.3 |  | 49.7 | 50.7 | 66.9 |  | > 100 |  | 69.9 |  | 62.6 |  | > 100 |
| CCOC(=O)C(Cc1cccn1C(=O)OC(C)(C)C)[N+](=O)[O-] (stereo not drawn) | 70.2 | 58.7 | 45.1 |  | 54.9 | 50.3 | 90.4 |  | 69 |  | 93 |  | > 100 |  | > 100 |
| Cc1cn([C@@H]2O[C@H](CO[Si](C)(C)C(C)(C)C)[C@]3(O[C@H]3C(=O)NN)[C@H]2O[Si](C)(C)C(C)(C)C)c(=O)[nH]c1=O | 21.8 | 16.3 | 9.19 |  | 22.9 | 26.9 | 13.3 |  | 25.3 |  | 19.8 |  | 15.1 |  | 16.6 |
| O=CC12C3CCC1C2C(=O)C3 (stereo not drawn) | > 100 | > 100 | > 100 |  | > 100 | > 100 | > 100 |  | > 100 |  | > 100 |  | > 100 |  | > 100 |
| CC1(C)C2CC(=O)C1(C)C(OCc1ccccc1)C2 (stereo not drawn) | > 100 | > 100 | > 100 |  | > 100 | > 100 | > 100 |  | > 100 |  | > 100 |  | > 100 |  | > 100 |
| C[N+]1(CCCl)CC[N+](C)(CCCl)CC1 (stereo not drawn) | > 100 | > 100 | > 100 |  | > 100 | > 100 | > 100 |  | > 100 |  | > 100 |  | > 100 |  | > 100 |
| C=C1C(=O)O[C@@H]2C[C@]3(C)CC[C@]4(C)[C@H](CC[C@@H]5[C@@]6(C)CCC(=O)C(C)(C)[C@@H]6CC[C@]54C)[C@H]3[C@H]12 | 34.7 | 38.2 | 5.8 |  | 43.9 | 30.3 | 30.9 |  | 38.4 |  | 38.7 |  | 21.4 |  | 46.9 |
| c1c[nH]c(C23C4C5C6C4C2C6C53)n1 (stereo not drawn) | > 100 | > 100 | > 100 |  | > 100 | > 100 | > 100 |  | > 100 |  | > 100 |  | > 100 |  | > 100 |
| CC(C)C(/C=C/c1ccc(Cl)c(Cl)c1)=N\NC(=O)N/N=C(/C=C/c1ccc(Cl)c(Cl)c1)C(C)C | > 100 | > 100 | > 100 |  | > 100 | > 100 | > 100 |  | > 100 |  | > 100 |  | > 100 |  |  |
| O=C1OC(=O)c2cc(S(=O)(=O)c3ccc4c(c3)C(=O)OC4=O)ccc21 | > 100 | > 100 | > 100 |  | > 100 | > 100 | > 100 |  | > 100 |  | > 100 |  | > 100 |  | > 100 |
| O=c1c(=O)c2c(Br)sc(Br)c2c1=O | > 100 | 35.3 | 45.9 |  | 75.2 | 47.7 | 32.8 |  | 28.7 |  | 37.4 |  | 42.3 |  | > 100 |
| Nc1nn2c(nc(N)c3c(N)[nH]nc32)c1N=Nc1ccc(Br)cc1 | > 100 | 49.6 | > 100 |  | 59.9 | > 100 | 9.88 |  | > 94.2 |  | > 97.1 |  | > 100 |  | > 100 |
| CCCCON1C[C@H](OC(C)=O)C(OC(C)=O)[C@H](OC(C)=O)C1 (stereo partly drawn) | > 100 | > 100 | > 100 |  | > 100 | > 100 | > 100 |  | > 100 |  | > 100 |  | > 100 |  | > 100 |
| CN(c1ccccc1Cl)S(=O)(=O)c1ccc([N+](=O)[O-])cc1 | > 100 | > 100 | > 100 |  | > 100 | > 100 | > 100 |  | > 100 |  | > 100 |  | > 100 |  | > 100 |
| S=C(c1c[nH]c2ccccc12)N1CCN(Cc2ccccc2)CC1 | > 100 | 32.9 | 51.9 |  | 37 | > 100 | 29.7 |  | 31 |  | 43.7 |  | 46.7 |  |  |
| CC1=Nc2sc3c(c2C2=NCCN12)CCCC3 | > 100 |  | 46.9 |  | > 100 | > 100 | 44.2 |  | 65.4 |  | 50.6 |  | 48.1 |  |  |
| CCCCCCCCCCCCCCCCOC[C@@H](COC(c1ccccc1)(c1ccccc1)c1ccccc1)O[P+](=S)OC (stereo partly drawn) | 30.6 | 9.45 | 14.7 |  | 29.6 | 23.6 | 5.53 |  |  |  | 48.9 |  | 31 |  | 21 |
| COc1ccc(N2C(=O)C3c4[nH]c5ccc(F)cc5c4C4CCC(c5ccccc5)CC4C3C2=O)cc1 (stereo not drawn) | > 100 |  | > 100 |  | 31.6 | 70.1 | > 100 |  | 32.7 |  | 50.6 |  | > 100 |  | > 100 |
| O=C(O)Cc1ccc2[nH]c(O)c(C3=Nc4ccccc4C3=O)c2c1 | > 100 |  | > 100 |  | > 100 | > 100 | > 100 |  | > 100 |  | > 100 |  | 36.1 |  | > 100 |
